Numbers after ± are expanded uncertainties.
Settings: Liquid

CCOS(=O)(=O)[O-].CCn1cc[n+](C)c1 [1-ethyl-3-methylimidazolium ethyl sulfate]
mass density [kg/m3]
Settings	100 kPa	2500 kPa	5000 kPa	10000 kPa	15000 kPa	20000 kPa	25000 kPa	30000 kPa	35000 kPa
283.15 K	1246.94 ± 0.83	1247.9 ± 0.94	1248.89 ± 1.1	1250.85 ± 1.4	1252.79 ± 1.7	1254.73 ± 2	1256.61 ± 2.3	1258.47 ± 2.6	1260.31 ± 2.9
293.15 K	1239.88 ± 0.81	1240.89 ± 0.92	1241.91 ± 1.1	1243.9 ± 1.4	1245.88 ± 1.6	1247.83 ± 1.9	1249.76 ± 2.2	1251.66 ± 2.5	1253.57 ± 2.9
298.15 K	1236.35 ± 0.81	1237.35 ± 0.92	1238.4 ± 1	1240.44 ± 1.3	1242.46 ± 1.6	1244.44 ± 1.9	1246.41 ± 2.2	1248.35 ± 2.5	1250.23 ± 2.8
303.15 K	1232.72 ± 0.8	1233.78 ± 0.91	1234.83 ± 1	1237 ± 1.3	1239.02 ± 1.6	1241.03 ± 1.9	1243.02 ± 2.2	1244.98 ± 2.5	1246.84 ± 2.8
313.15 K	1226.06 ± 0.79	1227.11 ± 0.89	1228.18 ± 1	1230.3 ± 1.3	1232.38 ± 1.6	1234.45 ± 1.9	1236.48 ± 2.1	1238.47 ± 2.4	1240.45 ± 2.7
323.15 K	1219.19 ± 0.77	1220.23 ± 0.87	1221.36 ± 0.98	1223.53 ± 1.2	1225.69 ± 1.5	1227.8 ± 1.8	1229.93 ± 2.1	1231.96 ± 2.4	1233.91 ± 2.7
333.15 K	1212.42 ± 0.76	1213.53 ± 0.86	1214.66 ± 0.96	1216.87 ± 1.2	1219.08 ± 1.5	1221.24 ± 1.8	1223.33 ± 2	1225.42 ± 2.3	1227.46 ± 2.6

From the NIST ThermoML archive (doi:10.1016/j.jct.2007.11.011)
